The values below come from PubChem BioAssay (NCI).

Among the test systems are SK-MEL-5 melanoma; MDA-MB-231 breast; SR leukemia; KM12 colon; SW-620 colon; COLO 205 colon; MDA-MB-435; OVCAR-5 ovarian; ACHN renal; SK-OV-3 ovarian; T-47D breast; U251 CNS; RPMI-8226 leukemia.
Assay in all cases: DTP human tumour cell line panel, 48 h

Molecules are shown by their SMILES.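 In this assay, cells in 96-well plates receive the compound at five concentrations for 48 hours. Endpoints are linearly interpolated between the surrounding concentrations. TGI: concentration producing complete growth inhibition.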

Usually TGI stands for the concentration giving total growth inhibition. A low value points to greater sensitivity of the cells. For the molecule `N#CC1(c2ccccc2)CCN(C2(c3ccccc3)CCCCC2)CC1`, the total growth inhibition concentration (TGI) in the assay on SK-MEL-5 melanoma, in the assay on MDA-MB-231 breast, with SR leukemia, in the assay on KM12 colon, with SW-620 colon and in the assay on COLO 205 colon was over 100 µM in each case. Besides, the concentration for total growth inhibition (TGI) in the assay on MDA-MB-435, in the assay on OVCAR-5 ovarian, in the assay on ACHN renal, in the assay on SK-OV-3 ovarian, with T-47D breast and in the assay with U251 CNS was over 100 µM each time. In the assay on RPMI-8226 leukemia, this molecule gave a TGI of over 100 µM.
As for `COc1ccc2c(-c3ccc(OCCN(C)C)cc3)c(Oc3ccc(Cl)cc3)c(=O)oc2c1`, the TGI with SK-MEL-5 melanoma was 3.19 µM; in the assay with MDA-MB-231 breast, 33.5 µM; with SR leukemia, 5.06 µM; with KM12 colon it was 25.1 µM; with SW-620 colon it was over 46.8 µM; with COLO 205 colon it was 10.5 µM. In addition, the total growth inhibition concentration (TGI) in the assay on MDA-MB-435 is 8.66 µM; in the assay on OVCAR-5 ovarian, 36.8 µM; with ACHN renal, 20.9 µM; with SK-OV-3 ovarian, 29.3 µM; in the assay on T-47D breast, over 100 µM; in the assay with U251 CNS it was 14.5 µM. This molecule also registered a concentration for total growth inhibition (TGI) with RPMI-8226 leukemia of 14.8 µM.
As for `CCOC(=O)/C(C#N)=C(/NNc1ccccc1)c1ccncc1C(=O)O`, the TGI in the assay on SK-MEL-5 melanoma is over 48.9 µM; with MDA-MB-231 breast, over 100 µM; in the assay on SR leukemia, over 100 µM; in the assay with KM12 colon, over 100 µM; with SW-620 colon, over 100 µM; with COLO 205 colon, 22.5 µM. Besides, the total growth inhibition concentration (TGI) in the assay on MDA-MB-435, in the assay on OVCAR-5 ovarian, in the assay on ACHN renal, with SK-OV-3 ovarian, in the assay on T-47D breast and with U251 CNS was over 100 µM each time. In the assay with RPMI-8226 leukemia, this molecule registered a total growth inhibition concentration (TGI) of over 100 µM.
In the case of `COc1ccc(/C(=N/Nc2nc3ccccc3[nH]2)C(=O)O)cc1`, the TGI in the assay with SK-MEL-5 melanoma, in the assay with MDA-MB-231 breast, in the assay on SR leukemia, with KM12 colon, in the assay with SW-620 colon and with COLO 205 colon was over 100 µM in each case. In addition, the TGI in the assay with MDA-MB-435, in the assay with OVCAR-5 ovarian, in the assay on ACHN renal, in the assay with SK-OV-3 ovarian, with T-47D breast and with U251 CNS was over 100 µM each time. Moreover, in the assay on RPMI-8226 leukemia, the concentration for total growth inhibition (TGI) was over 100 µM.
`CC1(C)CCCCCCCCCC(C)(CCCCCCCCCCCCO)C1=O` (configuration not stated): the TGI in the assay with SK-MEL-5 melanoma is 35.3 µM; in the assay on MDA-MB-231 breast, 29.9 µM; in the assay on SR leukemia, over 100 µM; in the assay with KM12 colon, 31.1 µM; in the assay on SW-620 colon, 32.5 µM; in the assay with COLO 205 colon, 62.7 µM. Moreover, the TGI is 33 µM in the assay with MDA-MB-435; 34.1 µM in the assay with OVCAR-5 ovarian; 28.4 µM in the assay with ACHN renal; 33.2 µM with SK-OV-3 ovarian; 34 µM in the assay with T-47D breast; 33 µM in the assay on U251 CNS. The same molecule had a TGI in the assay with RPMI-8226 leukemia of 42.2 µM.
On to `COc1nc(OC)nc(-c2cccc(F)c2)n1`, for which the total growth inhibition concentration (TGI) was 29.8 µM in the assay on SK-MEL-5 melanoma; 30 µM with MDA-MB-231 breast; 17.5 µM in the assay with SR leukemia; 31.7 µM with KM12 colon; 40.6 µM in the assay on SW-620 colon; 37.8 µM in the assay with COLO 205 colon. Also, the concentration for total growth inhibition (TGI) worked out at 31 µM in the assay with MDA-MB-435; 28.5 µM with OVCAR-5 ovarian; 30.7 µM with ACHN renal; 31.4 µM in the assay with SK-OV-3 ovarian; 33.8 µM in the assay on T-47D breast; 31 µM in the assay on U251 CNS. Further, the concentration for total growth inhibition (TGI) with RPMI-8226 leukemia turned out to be 45.3 µM.
Turning to `COC1=CC(=O)c2c(O)c3c(c(O)c2C1=O)C[C@](C)(O)C[C@@H]3O`, the TGI in the assay with SK-MEL-5 melanoma is 2.64 µM; in the assay on MDA-MB-231 breast, 28.3 µM; in the assay with SR leukemia, 12.1 µM; in the assay with KM12 colon it was 19 µM; in the assay on SW-620 colon, 14 µM; in the assay with COLO 205 colon, 4.96 µM. Besides, the TGI in the assay on MDA-MB-435 worked out at 3.34 µM; in the assay on OVCAR-5 ovarian, 27.8 µM; with ACHN renal, 16 µM; in the assay with SK-OV-3 ovarian, 41.6 µM; with T-47D breast it was 22.3 µM; in the assay with U251 CNS, 14.6 µM. This molecule also gave a total growth inhibition concentration (TGI) in the assay with RPMI-8226 leukemia of 40.2 µM.
As for `CN(CCc1ccc(Cl)c(Cl)c1)CCN(C)CCN1CCCC1`, the TGI in the assay with SK-MEL-5 melanoma turned out to be 7.75 µM; in the assay on MDA-MB-231 breast, 23 µM; in the assay on SR leukemia, 17.2 µM; in the assay on KM12 colon, 24.8 µM; in the assay on SW-620 colon, 31.2 µM; in the assay with COLO 205 colon, 5.3 µM. The TGI is 4.5 µM with MDA-MB-435; 43.3 µM in the assay with OVCAR-5 ovarian; 47.2 µM in the assay with ACHN renal; 54.3 µM in the assay with SK-OV-3 ovarian; 44.6 µM with T-47D breast; 24.4 µM with U251 CNS. Also, the TGI with RPMI-8226 leukemia came to 8.97 µM.
Regarding `ONC1=Nc2ccccc2OCc2cc(Br)c(Br)cc2COc2ccccc2N=C1NO`, the total growth inhibition concentration (TGI) in the assay with SK-MEL-5 melanoma was 30.4 µM; in the assay with MDA-MB-231 breast it was 35.5 µM; in the assay on SR leukemia, 15.2 µM; in the assay with KM12 colon it was over 46 µM; in the assay with SW-620 colon, over 48.3 µM; in the assay with COLO 205 colon, 21.5 µM. The concentration for total growth inhibition (TGI) with MDA-MB-435 is over 54.3 µM; with OVCAR-5 ovarian, 42.8 µM; with ACHN renal, over 43.3 µM; in the assay on SK-OV-3 ovarian it was over 53.1 µM; with T-47D breast, 31.1 µM; in the assay with U251 CNS, 41.8 µM. The total growth inhibition concentration (TGI) in the assay on RPMI-8226 leukemia worked out at 43.4 µM.
